What is called Ki is the dissociation constant of the complex between target and ligand, obtained from inhibition or displacement.

The record followed here is patent publication US6316437A, “Spirohydantoin compounds and uses thereof” (Merck & Co., Inc., priority 2000, dated 2001).

For experiment [1], the target named is T1, human alpha 1a adrenergic receptor (Homo sapiens, UniProt P35348).
T1 sequence (P35348 1-466): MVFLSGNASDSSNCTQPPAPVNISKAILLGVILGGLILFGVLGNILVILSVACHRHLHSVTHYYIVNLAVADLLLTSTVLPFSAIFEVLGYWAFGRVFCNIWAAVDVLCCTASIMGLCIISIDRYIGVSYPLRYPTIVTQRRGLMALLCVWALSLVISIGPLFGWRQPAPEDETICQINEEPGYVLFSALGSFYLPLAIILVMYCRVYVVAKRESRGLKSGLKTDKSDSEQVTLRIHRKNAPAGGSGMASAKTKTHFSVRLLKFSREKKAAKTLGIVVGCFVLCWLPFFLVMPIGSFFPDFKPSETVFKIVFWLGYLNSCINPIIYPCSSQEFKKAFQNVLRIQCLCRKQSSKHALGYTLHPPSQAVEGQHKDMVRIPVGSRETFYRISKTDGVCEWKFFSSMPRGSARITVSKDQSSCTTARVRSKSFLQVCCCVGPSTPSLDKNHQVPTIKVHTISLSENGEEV
Nature of the experiment: Alpha 1a Adrenergic Receptor Binding (competition binding, [125I]-HEAT). Conditions: human alpha 1a membranes, [125I]-HEAT competition, room temperature, one hour. Here is the method: Screening Assay: Alpha 1a Adrenergic Receptor Binding
Membranes prepared from the stably transfected human alpha 1a cell line (ATCC CRL 11140) were used to identify compounds that bind to the human alpha 1a adrenergic receptor. These competition binding reactions (total volume=200 μl) contained 50 mM Tris-HCl pH. 7.4, 5 mM EDTA, 150 mM NaCl, 100 pM [^125 I]-HEAT, membranes prepared from the alpha 1a cell line and increasing amounts of unlabeled ligand. Reactions were incubated at room temperature for one hour with shaking. Reactions were filtered onto Whatman GF/C glass fiber filters with a Inotec 96 well cell harvester. Filters were washed three times with ice cold buffer and bound radioactivity was determined (Ki).

Experiment [2] concerns the target T2, human alpha 1b adrenergic receptor (Homo sapiens, UniProt P35368).
T2 construct: host or cells: stably transfected cell line
T2 sequence (P35368 1-520): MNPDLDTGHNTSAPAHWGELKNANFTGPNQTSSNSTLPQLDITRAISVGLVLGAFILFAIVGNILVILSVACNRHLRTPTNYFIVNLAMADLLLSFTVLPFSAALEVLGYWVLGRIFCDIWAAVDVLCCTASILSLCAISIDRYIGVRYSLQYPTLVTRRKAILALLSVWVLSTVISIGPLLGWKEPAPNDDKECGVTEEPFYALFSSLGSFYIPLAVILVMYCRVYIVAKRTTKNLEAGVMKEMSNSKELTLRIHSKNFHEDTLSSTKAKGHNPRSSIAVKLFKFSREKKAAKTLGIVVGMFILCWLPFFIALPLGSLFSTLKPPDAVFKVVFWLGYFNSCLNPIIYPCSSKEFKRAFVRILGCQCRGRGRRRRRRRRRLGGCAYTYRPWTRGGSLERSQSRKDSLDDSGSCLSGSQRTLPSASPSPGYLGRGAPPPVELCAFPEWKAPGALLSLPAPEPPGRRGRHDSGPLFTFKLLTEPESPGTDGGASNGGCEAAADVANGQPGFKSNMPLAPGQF
Nature of the experiment: Selective Binding Assay, alpha 1b (competition binding, [125I]-HEAT). Conditions: alpha 1a versus alpha 1b, [125I]-HEAT competition binding. Here is the method:
(§1) Membranes prepared from stably transfected human alpha 1d and alpha 1b cell lines (ATCC CRL 11138 and CRL 11139, respectively) were used to identify compounds that selectively bind to the human alpha 1a adrenergic receptor. These competition binding reactions (total volume=200 μl) contained 50 mM Tris-HCl pH. 7.4, 5 mM EDTA, 150 mM NaCl, 100 pM [^125 I]-HEAT, membranes prepared from cell lines transfected with the respective alpha 1 subtype expression plasmid and increasing amounts of unlabeled ligand. Reactions were incubated at room temperature for one hour with shaking. Reactions were filtered onto Whatman GF/C glass fiber filters with a Inotec 96 well cell harvester. Filters were washed three times with ice cold buffer and bound radioactivity was determined (Ki).

For experiment [3], the target named is T3, human alpha 1d adrenergic receptor (Homo sapiens, UniProt P25100).
T3 construct: host or cells: stably transfected cell line
T3 sequence (P25100 1-572): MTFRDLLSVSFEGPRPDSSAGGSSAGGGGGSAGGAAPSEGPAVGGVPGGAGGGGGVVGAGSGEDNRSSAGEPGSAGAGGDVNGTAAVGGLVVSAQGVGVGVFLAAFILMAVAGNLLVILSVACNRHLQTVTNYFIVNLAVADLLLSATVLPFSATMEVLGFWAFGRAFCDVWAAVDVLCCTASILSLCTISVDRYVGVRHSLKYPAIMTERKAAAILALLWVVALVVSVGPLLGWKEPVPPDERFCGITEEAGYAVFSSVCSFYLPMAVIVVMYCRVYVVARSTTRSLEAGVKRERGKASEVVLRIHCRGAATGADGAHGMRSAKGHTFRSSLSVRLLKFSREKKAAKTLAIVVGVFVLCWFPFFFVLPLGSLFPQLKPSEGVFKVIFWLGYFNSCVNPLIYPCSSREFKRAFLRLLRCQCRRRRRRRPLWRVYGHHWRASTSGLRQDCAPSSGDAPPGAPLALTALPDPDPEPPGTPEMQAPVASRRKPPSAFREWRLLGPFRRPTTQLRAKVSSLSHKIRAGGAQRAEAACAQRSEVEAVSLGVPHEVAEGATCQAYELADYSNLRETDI
Nature of the experiment: Selective Binding Assay, alpha 1d (competition binding, [125I]-HEAT). Conditions: alpha 1a versus alpha 1d, [125I]-HEAT competition binding. The protocol: as §1

Molecules are shown by their SMILES. Structures can show the parent of a compound that is named as a salt. Where two headings read alike, the source gives them in different places.

`Cc1ccc2c(c1)CCC21NC(=O)N(CCCN2CCC3(CCc4ccccc43)CC2)C1=O` (single isomer, unassigned; (+)) [Compound 35, (+)-1-{3-{spiro[indano-1,4'-piperidin]-1-yl}propyl}-5'-methyl-spiro[imidazolidine-4,1'indan]-2,5-dione]: the Ki in experiment [1] (alpha 1a Ki) is less than 10 nM.
`Cc1ccc2c(c1)CCC21NC(=O)N(CCCN2CCC(c3ccc(F)cc3C#N)CC2)C1=O` (racemic) [Compound 36, (+/ -)-1-{3-[4-(4-Fluoro-2-cyanophenyl)piperidin-1-yl]propyl}3-5'-methyl-spiro[imidazolidine-4,1'indan]-2,5-dione hydrochloride]: in experiment [1] (read-out: alpha 1a Ki), the Ki was less than 10 nM.
Turning to `N#Cc1cc(F)ccc1C1CCN(CCCN2C(=O)NC3(CCc4cc(Cl)ccc43)C2=O)CC1` (racemic) [Compound 23, (+/ -)-1-{3-[4-(4-Fluoro-2-cyanophenyl)piperidin-1-yl]propyl}-5'-chloro-spiro[imidazolidine-4,1'indan]-2,5-dione hydrochloride], the Ki in experiment [1] (read-out: alpha 1a Ki) is less than 10 nM.
In turn, `O=C1Nc2ccc(Cl)cc2C2(CCN(CCCN3C(=O)NC4(CCc5cc(Cl)ccc54)C3=O)CC2)O1` (racemic) [Compound 29, (+/ -)-1-{3-{6-Chlorospiro[4H-3,1-benzoxazine-4,4'-piperidin]-2(1H)-on-1'-yl}propyl}-5'-chloro-spiro[imidazolidine-4,1'indan]-2,5-dione hydrochloride] showed an inhibition constant (Ki) in experiment [1] (alpha 1a Ki) of less than 10 nM.
On the same count and under the same terms, with `O=C1NC2(CCc3cc(F)ccc32)C(=O)N1CCCN1CCC2(CCc3ccccc32)CC1` (racemic) [Compound 12, (+/ -)-1-{3-{Spiro[indano-1,4'-piperidin]-1-yl}propyl}-5'-fluoro-spiro[imidazoline-4,1'indan]-2,5-dione hydrochloride] the figure was less than 10 nM.
Compound `Cl.O=C1Nc2ccc(Cl)cc2C2(CCN(CCCN3C(=O)NC4(CCc5cc(F)ccc54)C3=O)CC2)O1` (racemic) [Compound 15, (+/ -)-1-{3-{6-Chlorospiro[4H-3,1-benzoxazine-4,4'-piperidin]-2(1H)-on-1'-yl}propyl}-5'-fluoro-spiro[imidazolidine-4,1'indan]-2,5-dione hydrochloride] came in with a Ki in experiment [1] (alpha 1a Ki) of less than 100 nM. In addition, the “fold more selective in binding to alpha 1a receptors versus binding to the alpha 1b receptors” value (“fold more selective … to the alpha 1b receptors” for short) in experiment [2] is given as “at least 10 fold”. For the same compound, in experiment [3], the “fold more selective in binding to alpha 1a receptors versus binding to the alpha 1d receptors” value (“fold more selective … to the alpha 1d receptors” below) is on record as “at least 10 fold”.
In the case of `N#CC1(c2ccccc2)CCN(CCCN2C(=O)NC3(CCc4cc(F)ccc43)C2=O)CC1` (stereo not shown) [Compound 10], the Ki in experiment [1] (alpha 1a Ki) was less than 10 nM.
For the compound `O=C1NC2(CCOc3cc(F)ccc32)C(=O)N1CCCN1CCC(c2ccc(F)cc2)CC1` (single isomer, unassigned; (+)) [Compound 42, (+)-1'-{3-[4-(4-fluorophenyl)piperidin-1-yl]propyl}-7-fluoro-2,3-dihydro-spiro[4H-1-benzopyran-4,4'-imidazolidine]-2',5'-dione], the Ki in experiment [1] (read-out: alpha 1a Ki) was less than 10 nM.
In the case of `O=C1NC2(CCc3cc(Cl)ccc32)C(=O)N1CCCN1CCC2(CCc3ccccc32)CC1` (stereo not shown) [Compound 28], the Ki in experiment [1] (alpha 1a Ki) was less than 10 nM.
Regarding `N#Cc1cc(F)ccc1C1CCN(CCCN2C(=O)NC3(CCSc4cc(F)ccc43)C2=O)CC1` (racemic) [Compound 45, (+/ -)-1'-{3-[4-(4-Fluoro-2-cyano-phenyl)piperidin-1-yl]propyl}-7-fluoro-2,3-dihydro-spiro[4H-1-benzothiopyran-4,4'-imidazolidine]-2',5'-dione hydrochloride], the Ki in experiment [1] (read-out: alpha 1a Ki) was less than 10 nM.
`CC(CCN1C(=O)NC2(CCc3cc(Cl)ccc32)C1=O)N1CCC(c2ccc(F)cc2)CC1.Cl` (racemic) [Compound 51, (+/ -)-1-{3-[4-(4-fluorophenyl)piperidin-1-yl]butyl}-5'-chloro-spiro[imidazolidine-4,1'indan]-2,5-dione hydrochloride]: the “fold more selective … to the alpha 1b receptors” value in experiment [2] is “at least 10 fold”. For the same compound, the “fold more selective … to the alpha 1d receptors” value in experiment [3] was “at least 10 fold”.
In experiment [1] (alpha 1a Ki), `O=C1NC2(CCc3cc(F)ccc32)C(=O)N1CCCN1CCC2(CCc3ccccc32)CC1` (stereo not shown) [Compound 14] came in with a Ki of less than 100 nM.
The compound `Cc1ccc2c(c1)CCC21NC(=O)N(CCCN2CCC3(CCc4ccccc43)CC2)C1=O` (racemic) [Compound 33, (+/ -)-1-{3-{Spiro[indano-1,4'-piperidin]-1-yl}propyl}-5'-methyl-spiro[imidazolidine-4,1'indan]-2,5-dione hydrochloride] yielded a Ki in experiment [1] (alpha 1a Ki) of less than 10 nM.
With `N#Cc1cc(F)ccc1C1CCN(CCCN2C(=O)NC3(CCCOc4cc(F)ccc43)C2=O)CC1` (racemic) [Compound 50, (+/ -)-1-{3-[4-(4-fluoro-2-cyano-phenyl)piperidin-1-yl]propyl}-8-fluoro-2,3,4,5-tetrahydro-spiro[1-benzoxepin-5(2H),4'-imidazolidine]-2',5'-dione hydrochloride], the Ki in experiment [1] (read-out: alpha 1a Ki) was less than 10 nM.
On to `Cl.N#CC1(c2ccccc2)CCN(CCCN2C(=O)NC3(CCCCc4ccc(F)cc43)C2=O)CC1` (racemic) [Compound 48, (+/ -)-1'-[3-(4-Cyano-4-phenylpiperidin-1-yl)propyl]-3-fluoro-6,7,8,9-tetrahydro-spiro[5H-benzocycloheptene-5,4'-imidazolidine]-2',5'-dione hydrochloride], for which the “fold more selective … to the alpha 1b receptors” value in experiment [2] is “at least 10 fold”. Also, the “fold more selective … to the alpha 1d receptors” value in experiment [3] is on record as “at least 10 fold”.
As for `N#Cc1cc(F)ccc1C1CCN(CCCN2C(=O)NC3(CCc4cc(F)c(F)cc43)C2=O)CC1` (racemic) [Compound 18, (+/ -)-1-{3-[4-(4-Fluoro-2-cyanophenyl)piperidin-1-yl]propyl}-5',6'-difluoro-spiro[imidazolidine-4,1'indan]-2,5-dione hydrochloride], the Ki in experiment [1] (read-out: alpha 1a Ki) is less than 10 nM.
On the same count and under the same terms, with `N#Cc1cc(F)ccc1C1CCN(CCCN2C(=O)NC3(CCc4cc(F)c(F)cc43)C2=O)CC1` (stereo not shown) [Compound 19] the figure was less than 10 nM.
The same measure, in the same setting: with `N#Cc1cc(F)ccc1C1CCN(CCCN2C(=O)NC3(CCc4cc(Cl)ccc43)C2=O)CC1` (stereo not shown) [Compound 24] the figure was less than 10 nM.
